In patent publication US11634447B2 (priority 2012, dated 2023):

Molecular target: bacterial strain LF82 binding to the glycoprotein BSA-(Mannose)3
Test: Bacterial Binding Assay (BBA)
Assay type: cell-based, Escherichia coli
Details: LF82/Luciferase strain binding to BSA-(Man)3 coated plates, luminescence; read-out: Bacterial Binding Assay IC50
Method in brief: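 Inhibition of LF82/luciferase E. coli adhesion is read as luminescence after washing off unbound cells. Compound and bacteria (10^7 per well) are co-incubated 40-75 min at room temperature on wells coated with 0.5-2 μg/mL BSA-(Man)3, with BSA-only wells as background; IC50 values derived.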

Row | Structure (SMILES) | IC50 [nM]
1 | OC[C@H]1O[C@H](C#Cc2ccc(-c3ccc(C#C[C@H]4O[C@H](CO)[C@@H](O)[C@H](O)[C@@H]4O)s3)s2)[C@@H](O)[C@@H](O)[C@@H]1O [Compound 128] | 22

Same assay, conditions: read-out: Bacterial Binding Assay IC50, LF82/Luciferase strain binding to BSA-(Man)3 coated plates, luminescence

Row | Structure (SMILES) | IC50 [nM]
2 | Cn1c2cc(C#C[C@H]3O[C@H](CO)[C@@H](O)[C@H](O)[C@@H]3O)ccc2c2ccc(C#C[C@H]3O[C@H](CO)[C@@H](O)[C@H](O)[C@@H]3O)cc21 [Compound 112, (2R,3S,4R,5S,6R)-2-(hydroxymethyl)-6-[2-[9-methyl-7-[2-[(2R,3S,4R,5S,6R)-3,4,5-trihydroxy-6-(hydroxymethyl)tetrahydropyran-2-yl]ethynyl]carbazol-2-yl]ethynyl]tetrahydropyran-3,4,5-triol] | 17
3 | CCCCCC1(O)c2cc(C#C[C@H]3O[C@H](CO)[C@@H](O)[C@H](O)[C@@H]3O)ccc2-c2ccc(C#C[C@H]3O[C@H](CO)[C@@H](O)[C@H](O)[C@@H]3O)cc21 [Compound 113, (2R,3S,4R,5S,6R)-2-(hydroxymethyl)-6-[2-[9-hydroxy-9-pentyl-7-[2-[(2R,3S,4R,5S,6R)-3,4,5-trihydroxy-6-(hydroxymethyl)tetrahydropyran-2-yl]ethynyl]fluoren-2-yl]ethynyl]tetrahydropyran-3,4,5-triol] | 5.5
4 | OC[C@H]1O[C@H](C#Cc2ccc3c(c2)C(O)(C2CC2)c2cc(C#C[C@H]4O[C@H](CO)[C@@H](O)[C@H](O)[C@@H]4O)ccc2-3)[C@@H](O)[C@@H](O)[C@@H]1O (stereo partly drawn) [Compound 114, (2R,3S,4R,5S,6R)-2-[2-[9-cyclopropyl-9-hydroxy-7-[2-[(2R,3S,4R,5S,6R)-3,4,5-trihydroxy-6-(hydroxymethyl)tetrahydropyran-2-yl]ethynyl]fluoren-2-yl]ethynyl]-6-(hydroxymethyl)tetrahydropyran-3,4,5-triol] | 1.2
5 | CC1(O)c2cc(C#C[C@H]3O[C@H](CO)[C@@H](O)[C@H](O)[C@@H]3O)ccc2-c2ccc(C#C[C@H]3O[C@H](CO)[C@@H](O)[C@H](O)[C@@H]3O)cc21 [Compound 115, (2R,3S,4R,5S,6R)-2-(hydroxymethyl)-6-[2-[9-hydroxy-9-methyl-7-[2-[(2R,3S,4R,5S,6R)-3,4,5-trihydroxy-6-(hydroxymethyl)tetrahydropyran-2-yl]ethynyl]fluoren-2-yl]ethynyl]tetrahydropyran-3,4,5-triol] | 3.9
6 | OC[C@H]1O[C@H](C#Cc2ccc3c(c2)C(F)(F)c2cc(C#C[C@H]4O[C@H](CO)[C@@H](O)[C@H](O)[C@@H]4O)ccc2-3)[C@@H](O)[C@@H](O)[C@@H]1O [Compound 116, (2R,3S,4R,5S,6R)-2-[2-[9,9-difluoro-7-[2-[(2R,3S,4R,5S,6R)-3,4,5-trihydroxy-6-(hydroxymethyl)tetrahydropyran-2-yl]ethynyl]fluoren-2-yl]ethynyl]-6-(hydroxymethyl)tetrahydropyran-3,4,5-triol] | 8.1
7 | OC[C@H]1O[C@H](C#Cc2ccc3c(c2)CCc2cc(C#C[C@H]4O[C@H](CO)[C@@H](O)[C@H](O)[C@@H]4O)ccc2-3)[C@@H](O)[C@@H](O)[C@@H]1O [Compound 117, (2R,3S,4R,5S,6R)-2-(hydroxymethyl)-6-[2-[7-[2-[(2R,3S,4R,5S,6R)-3,4,5-trihydroxy-6-(hydroxymethyl)tetrahydropyran-2-yl]ethynyl]-9,10-dihydrophenanthren-2-yl]ethynyl]tetrahydropyran-3,4,5-triol] | 23
8 | OC[C@H]1O[C@H](C#Cc2ccc3c(c2)[nH]c2cc(C#C[C@H]4O[C@H](CO)[C@@H](O)[C@H](O)[C@@H]4O)ccc23)[C@@H](O)[C@@H](O)[C@@H]1O [Compound 118, (2R,3S,4R,5S,6R)-2-(hydroxymethyl)-6-[2-[7-[2-[(2R,3S,4R,5S,6R)-3,4,5-trihydroxy-6-(hydroxymethyl)tetrahydropyran-2-yl]ethynyl]-9H-carbazol-2-yl]ethynyl]tetrahydropyran-3,4,5-triol] | 22
9 | O=C1c2cc(C#C[C@H]3O[C@H](CO)[C@@H](O)[C@H](O)[C@@H]3O)ccc2-c2ccc(C#C[C@H]3O[C@H](CO)[C@@H](O)[C@H](O)[C@@H]3O)cc21 [Compound 119, 2,7-bis[2-[(2R,3S,4R,5S,6R)-3,4,5-trihydroxy-6-(hydroxymethyl)tetrahydropyran-2-yl]ethynyl]fluoren-9-one] | 14
10 | CC1(C)c2cc(C#C[C@H]3O[C@H](CO)[C@@H](O)[C@H](O)[C@@H]3O)ccc2-c2ccc(C#C[C@H]3O[C@H](CO)[C@@H](O)[C@H](O)[C@@H]3O)cc21 [Compound 120, (2R,3S,4R,5S,6R)-2-[2-[9,9-dimethyl-7-[2-[(2R,3S,4R,5S,6R)-3,4,5-trihydroxy-6-(hydroxymethyl)tetrahydropyran-2-yl]ethynyl]fluoren-2-yl]ethynyl]-6-(hydroxymethyl)tetrahydropyran-3,4,5-triol] | 1.2
11 | Cc1cc(-c2ccc(C#C[C@H]3O[C@H](CO)[C@@H](O)[C@H](O)[C@@H]3O)c(C)c2)ccc1C#C[C@H]1O[C@H](CO)[C@@H](O)[C@H](O)[C@@H]1O [Compound 121, (2R,3S,4R,5S,6R)-2-(hydroxymethyl)-6-[2-[2-methyl-4-[3-methyl-4-[2-[(2R,3S,4R,5S,6R)-3,4,5-trihydroxy-6-(hydroxymethyl)tetrahydropyran-2-yl]ethynyl]phenyl]phenyl]ethynyl]tetrahydropyran-3,4,5-triol] | 12
12 | CC(C)(c1ccc(C#C[C@H]2O[C@H](CO)[C@@H](O)[C@H](O)[C@@H]2O)cc1)c1ccc(C#C[C@H]2O[C@H](CO)[C@@H](O)[C@H](O)[C@@H]2O)cc1 [Compound 122, (2R,3S,4R,5S,6R)-2-(hydroxymethyl)-6-[2-[4-[1-methyl-1-[4-[2-[(2R,3S,4R,5S,6R)-3,4,5-trihydroxy-6-(hydroxymethyl)tetrahydropyran-2-yl]ethynyl]phenyl]ethyl]phenyl]ethynyl]tetrahydropyran-3,4,5-triol] | 29
13 | OC[C@H]1O[C@H](C#Cc2cc3cc(C#C[C@H]4O[C@H](CO)[C@@H](O)[C@H](O)[C@@H]4O)sc3s2)[C@@H](O)[C@@H](O)[C@@H]1O [Compound 123, (2R,3S,4R,5S,6R)-2-(hydroxymethyl)-6-[2-[5-[2-[(2R,3S,4R,5S,6R)-3,4,5-trihydroxy-6-(hydroxymethyl)tetrahydropyran-2-yl]ethynyl]thieno[2,3-b]thiophen-2-yl]ethynyl]tetrahydropyran-3,4,5-triol] | 41
14 | Cc1cc(C#C[C@H]2O[C@H](CO)[C@@H](O)[C@H](O)[C@@H]2O)ccc1-c1ccc(C#C[C@H]2O[C@H](CO)[C@@H](O)[C@H](O)[C@@H]2O)cc1C [Compound 124, (2R,3S,4R,5S,6R)-2-(hydroxymethyl)-6-[2-[3-methyl-4-[2-methyl-4-[2-[(2R,3S,4R,5S,6R)-3,4,5-trihydroxy-6-(hydroxymethyl)tetrahydropyran-2-yl]ethynyl]phenyl]phenyl]ethynyl]tetrahydropyran-3,4,5-triol] | 27
15 | COc1c(C#C[C@H]2O[C@H](CO)[C@@H](O)[C@H](O)[C@@H]2O)ccc2c(OC)c(C#C[C@H]3O[C@H](CO)[C@@H](O)[C@H](O)[C@@H]3O)ccc12 [Compound 125, (2R,3S,4R,5S,6R)-2-[2-[1,5-dimethoxy-6-[2-[(2R,3S,4R,5S,6R)-3,4,5-trihydroxy-6-(hydroxymethyl)tetrahydropyran-2-yl]ethynyl]-2-naphthyl]ethynyl]-6-(hydroxymethyl)tetrahydropyran-3,4,5-triol] | 54
16 | OC[C@H]1O[C@H](C#Cc2ccc3nc(C#C[C@H]4O[C@H](CO)[C@@H](O)[C@H](O)[C@@H]4O)ccc3c2)[C@@H](O)[C@@H](O)[C@@H]1O [Compound 126, (2R,3S,4R,5S,6R)-2-(hydroxymethyl)-6-[2-[2-[2-[(2R,3S,4R,5S,6R)-3,4,5-trihydroxy-6-(hydroxymethyl)tetrahydropyran-2-yl]ethynyl]-6-quinolyl]ethynyl]tetrahydropyran-3,4,5-triol] | 124
17 | OC[C@H]1O[C@H](C#Cc2ccc3nc(C#C[C@H]4O[C@H](CO)[C@@H](O)[C@H](O)[C@@H]4O)ncc3c2)[C@@H](O)[C@@H](O)[C@@H]1O [Compound 127, (2R,3S,4R,5S,6R)-2-(hydroxymethyl)-6-[2-[2-[2-[(2R,3S,4R,5S,6R)-3,4,5-trihydroxy-6-(hydroxymethyl)tetrahydropyran-2-yl]ethynyl]quinazolin-6-yl]ethynyl]tetrahydropyran-3,4,5-triol] | 43
18 | OC[C@H]1O[C@H](C#Cc2coc(C#C[C@H]3O[C@H](CO)[C@@H](O)[C@H](O)[C@@H]3O)n2)[C@@H](O)[C@@H](O)[C@@H]1O [Compound 129, (2R,3S,4R,5S,6R)-2-(hydroxymethyl)-6-[2-[2-[2-[(2R,3S,4R,5S,6R)-3,4,5-trihydroxy-6-(hydroxymethyl)tetrahydropyran-2-yl]ethynyl]oxazol-4-yl]ethynyl]tetrahydropyran-3,4,5-triol] | 1240
19 | OC[C@H]1O[C@H](C#Cc2ccc(C#C[C@H]3O[C@H](CO)[C@@H](O)[C@H](O)[C@@H]3O)c3cnccc23)[C@@H](O)[C@@H](O)[C@@H]1O [Compound 130, (2R,3S,4R,5S,6R)-2-(hydroxymethyl)-6-[2-[8-[-2-[(2R,3S,4R,5S,6R)-3,4,5-trihydroxy-6-(hydroxymethyl)tetrahydropyran-2-yl]ethynyl]-5-isoquinolyl]ethynyl]tetrahydropyran-3,4,5-triol] | 67
20 | OC[C@H]1O[C@H](C#Cc2ccc(C#C[C@H]3O[C@H](CO)[C@@H](O)[C@H](O)[C@@H]3O)c3nsnc23)[C@@H](O)[C@@H](O)[C@@H]1O [Compound 131, (2R,3S,4R,5S,6R)-2-(hydroxymethyl)-6-[2-[4-[2-[(2R,3S,4R,5S,6R)-3,4,5-trihydroxy-6-(hydroxymethyl)tetrahydropyran-2-yl]ethynyl]-2,1,3-benzothiadiazol-7-yl]ethynyl]tetrahydropyran-3,4,5-triol] | 128
